Patent US8173638B2 (Boehringer Ingelheim International GmbH, priority 2006, dated 2012)
Like-named read-outs stand apart in the source and are kept apart here.

Molecular target: T1, human CB2R (Homo sapiens, UniProt P34972)
T1 construct: host or cells: CHO cells
Test: CB2R mediated modulation of cAMP synthesis
Assay type: cell-based
Conditions: for agonistic activity: found through the use of the described assays (CB2 agonists), qualitative statement; for Emax: 0.5 h, read-out: Agonist Efficacy (%)
Experimental: B. CB2R Mediated Modulation of cAMP Synthesis:
CHO cells expressing human CB2R (Euroscreen) were plated at a density of 5000 cells per well in 384 well plates and incubated overnight at 37° C. After removing the media, the cells were treated with test compounds diluted in stimulation buffer containing 1 mM IBMX, 0.25% BSA and 10 uM Forskolin. The assay was incubated for 30 minutes at 37° C. Cells were lysed and the cAMP concentration was measured using DiscoverX-XS cAMP kit, following the manufacturer's protocol. In this setting, agonists will decrease forskolin induced production of cAMP while inverse agonists will further increase forskolin induced production of cAMP. EC50 of agonists were calculated as follows. The maximal amount of cAMP produced by forskolin compared to the level of cAMP inhibited by 1 uM CP55940 is defined as 100%. […] Data was analyzed using a four-parameter logistic model. (Model 205 of XLfit 4.0).

[1] = CHO cells expressing human CB2R, cAMP inhibited by 1 uM CP55940 defined as 100%

T1 sequence (P34972 whole entry): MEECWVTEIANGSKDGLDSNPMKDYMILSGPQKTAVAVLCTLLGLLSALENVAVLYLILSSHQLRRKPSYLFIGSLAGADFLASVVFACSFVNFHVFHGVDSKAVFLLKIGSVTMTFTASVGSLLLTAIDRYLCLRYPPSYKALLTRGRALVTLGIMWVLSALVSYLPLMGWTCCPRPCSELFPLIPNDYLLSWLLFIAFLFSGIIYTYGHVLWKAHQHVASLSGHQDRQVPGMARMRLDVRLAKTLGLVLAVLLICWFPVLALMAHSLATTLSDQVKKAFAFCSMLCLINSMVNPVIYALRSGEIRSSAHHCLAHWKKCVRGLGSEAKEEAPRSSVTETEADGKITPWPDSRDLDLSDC

| Structure (SMILES) | agonistic activity | EC50 (read-out: hCB2 cAMP EC50) | other results |
| --- | --- | --- | --- |
| CC(C)(C)c1ccc(NC(=O)N2CCCN(C(=O)CC3CCCC3)CC2)cc1 [4-(2-Cyclopentyl-acetyl)-[1,4]diazepane-1-carboxylic acid (4-tert-butyl-phenyl)-amide] | agonistic activity | – | – |
| N#Cc1ccc(C(=O)N2CCCN(C(=O)Nc3ccc4ccccc4c3)CC2)cc1 [4-(4-Cyano-benzoyl)-[1,4]diazepane-1-carboxylic acid naphthalen-2-ylamide] | agonistic activity | – | – |
| O=C(Nc1nc(-c2ccccc2)cs1)N1CCCN(C(=O)C2CCOCC2)CC1 [4-(Tetrahydro-pyran-4-carbonyl)-[1,4]diazepane-1-carboxylic acid (4-phenyl-thiazol-2-yl)-amide] | agonistic activity | – | – |
| Cc1ccc(C(=O)N2CCCN(C(=O)Nc3ccc(C(C)(C)C)cc3)CC2)cc1 [Compound 122, 4-(4-Methyl-benzoyl)-[1,4]diazepane-1-carboxylic acid (4-tert-butyl-phenyl)-amide] | – | 100 nM | Emax [1]: 101% |
| CC(C)c1ccc(NC(=O)N2CCCN(C(=O)c3ccc(Cl)cc3)CC2)cc1 [Compound 41, 4-(4-Chloro-benzoyl)-[1,4]diazepane-1-carboxylic acid (4-isopropyl-phenyl)-amide] | – | 43 nM | Emax [1]: 95% |
| COC1CCC(C(=O)N2CCCN(C(=O)Nc3cc(C(C)(C)C)on3)CC2)CC1 (centres unmarked) [Compound 155, 4-(4-Methoxy-cyclohexanecarbonyl)-[1,4]diazepane-1-carboxylic acid (5-tert-butyl-isoxazol-3-yl)-amide] | – | 110 nM | Emax (CHO): 101% |
| O=C(Nc1ccc2ccccc2c1)N1CCCN(C(=O)c2ccc(C(F)(F)F)cc2)CC1 [4-(4-Trifluoromethyl-benzoyl)-[1,4]diazepane-1-carboxylic acid naphthalen-2-ylamide] | agonistic activity | – | – |
| CC(C)CCC(=O)N1CCCN(C(=O)Nc2ccc3ccccc3c2)CC1 [Compound 94, 4-(4-Methyl-pentanoyl)-[1,4]diazepane-1-carboxylic acid naphthalen-2-ylamide] | – | 89 nM | Emax [1]: 98% |
| CC(C)c1ccc(NC(=O)N2CCCN(C(=O)c3ccc(Cl)cc3)CC2)cc1 [4-(4-Chloro-benzoyl)-[1,4]diazepane-1-carboxylic acid (4-isopropyl-phenyl)-amide] | agonistic activity | – | – |
| O=C(Nc1ccc2ccccc2c1)N1CCCN(C(=O)c2ccc(Cl)c(Cl)c2)CC1 [Compound 86, 4-(3,4-Dichloro-benzoyl)-[1,4]diazepane-1-carboxylic acid naphthalen-2-ylamide] | – | 52 nM | Emax [1]: 92% |
| CC(C)(C)C(=O)N1CCCN(C(=O)Nc2ccc(C(C)(C)C)cc2)CC1 [4-(2,2-Dimethyl-propionyl)-[1,4]diazepane-1-carboxylic acid (4-tert-butyl-phenyl)-amide] | agonistic activity | – | – |
| CC(C)(C)c1ccc(NC(=O)N2CCCN(C(=O)c3ccc(Cl)c(Cl)c3)CC2)cc1 [4-(3,4-Dichloro-benzoyl)-[1,4]diazepane-1-carboxylic acid (4-tert-butyl-phenyl)-amide] | agonistic activity | – | – |
| O=C(Nc1ccc2ccccc2c1)N1CCCN(C(=O)c2ccc(Cl)cc2)CC1 [4-(4-Chloro-benzoyl)-[1,4]diazepane-1-carboxylic acid naphthalen-2-ylamide] | agonistic activity | – | – |
| CC(C)c1ccc(NC(=O)N2CCCN(C(=O)CCC3CC3)CC2)cc1 [Compound 55, 4-(3-Cyclopropyl-propionyl)-[1,4]diazepane-1-carboxylic acid (4-isopropyl-phenyl)-amide] | – | 89 nM | Emax [1]: 105% |
| CCC(C)c1cc(NC(=O)N2CCCN(C(=O)C3CCOCC3)CC2)on1 (centres unmarked) [Compound 193, 4-(Tetrahydro-pyran-4-carbonyl)-[1,4]diazepane-1-carboxylic acid (3-sec-butyl-isoxazol-5-yl)-amide] | – | – | EC50: 41 nM; Emax (CHO): 106% |

Now from value to compound, other results behind:

| agonistic activity | EC50 (read-out: hCB2 cAMP EC50) | Structure (SMILES) | other results |
| --- | --- | --- | --- |
| agonistic activity | – | CSc1ccc(NC(=O)N2CCCN(C(=O)CC3CCCC3)CC2)cc1 [4-(2-Cyclopentyl-acetyl)-[1,4]diazepane-1-carboxylic acid (4-methylsulfanyl-phenyl)-amide] | – |
| agonistic activity | – | O=C(CC1CCCC1)N1CCCN(C(=O)Nc2ccc(Cl)cc2Cl)CC1 [4-(2-Cyclopentyl-acetyl)-[1,4]diazepane-1-carboxylic acid (2,4-dichloro-phenyl)-amide] | – |
| agonistic activity | – | O=C(Nc1nc2c(s1)CCCC2)N1CCCN(C(=O)N2CCS(=O)(=O)CC2)CC1 [4-(1,1-Dioxo-1λ^6-thiomorpholine-4-carbonyl)-[1,4]diazepane-1-carboxylic acid (4,5,6,7-tetrahydro-benzothiazol-2-yl)-amide] | – |
| agonistic activity | – | O=C(Nc1ccc(SC(F)(F)F)cc1)N1CCCN(C(=O)C2CCCCC2)CC1 [4-Cyclohexanecarbonyl-[1,4]diazepane-1-carboxylic acid (4-trifluoromethylsulfanyl-phenyl)-amide] | – |
| agonistic activity | – | CC(C)c1ccc(NC(=O)N2CCCN(C(=O)CCC3CCCCC3)CC2)cc1 [4-(3-Cyclohexyl-propionyl)-[1,4]diazepane-1-carboxylic acid (4-isopropyl-phenyl)-amide] | – |
| agonistic activity | – | O=C(Nc1nc(-c2ccccc2)cs1)N1CCCN(C(=O)N2CCOCC2)CC1 [4-(Morpholine-4-carbonyl)-[1,4]diazepane-1-carboxylic acid (4-phenyl-thiazol-2-yl)-amide] | – |
| agonistic activity | – | CCCCc1ccc(NC(=O)N2CCCN(C(=O)c3ccccc3)CC2)cc1 [4-Benzoyl-[1,4]diazepane-1-carboxylic acid (4-butyl-phenyl)-amide] | – |
| – | 12 nM | O=C(Nc1ccc(SC(F)(F)F)cc1)N1CCCN(C(=O)C2CCCCC2)CC1 [Compound 80, 4-Cyclohexanecarbonyl-[1,4]diazepane-1-carboxylic acid (4-trifluoromethylsulfanyl-phenyl)-amide] | Emax [1]: 99% |
| – | 9.6 nM | CC(C)(C)c1cc(NC(=O)N2CCCN(C(=O)CN3CCSCC3)CC2)no1 [Compound 227, 4-(2-Thiomorpholin-4-yl-acetyl)-[1,4]diazepane-1-carboxylic acid (5-tert-butyl-isoxazol-3-yl)-amide] | Emax [1]: 102% |
| – | 17 nM | CC(C)(C)c1cnc(NC(=O)N2CCCN(C(=O)C3CCC(O)CC3)CC2)s1 (centres unmarked) [Compound 173, 4-(4-Hydroxy-cyclohexanecarbonyl)-[1,4]diazepane-1-carboxylic acid (5-tert-butyl-thiazol-2-yl)-amide] | Emax [1]: 111% |
| agonistic activity | – | CC(C)(C)c1cc(NC(=O)N2CCCN(C(=O)C3CCCN(S(C)(=O)=O)C3)CC2)no1 (centres unmarked) [4-(1-Methanesulfonyl-piperidine-3-carbonyl)-[1,4]diazepane-1-carboxylic acid (5-tert-butyl-isoxazol-3-yl)-amide] | – |
| – | 71 nM | O=C(Nc1ccc(C(F)(F)F)cc1)N1CCCN(C(=O)C2CCCCC2)CC1 [Compound 128, 4-Cyclohexanecarbonyl-[1,4]diazepane-1-carboxylic acid (4-trifluoromethyl-phenyl)-amide] | Emax [1]: 107% |
| agonistic activity | – | Cc1nc(NC(=O)N2CCCN(C(=O)C3CCC(F)(F)CC3)CC2)sc1C(C)(C)C [4-(4,4-Difluoro-cyclohexanecarbonyl)-[1,4]diazepane-1-carboxylic acid (5-tert-butyl-4-methyl-thiazol-2-yl)-amide] | – |
| agonistic activity | – | CCC(C)c1cc(NC(=O)N2CCCN(C(=O)C3CCOCC3)CC2)n(C)n1 (centres unmarked) [4-(Tetrahydro-pyran-4-carbonyl)-[1,4]diazepane-1-carboxylic acid (5-sec-butyl-2-methyl-2H-pyrazol-3-yl)-amide] | – |
| agonistic activity | – | Cn1nc(-c2ccccc2)cc1NC(=O)N1CCCN(C(=O)C2CCOCC2)CC1 [4-(Tetrahydro-pyran-4-carbonyl)-[1,4]diazepane-1-carboxylic acid (2-methyl-5-phenyl-2H-pyrazol-3-yl)-amide] | – |
| agonistic activity | – | CC(C)(C)c1cc(NC(=O)N2CCCN(C(=O)C3CCC(F)(F)CC3)CC2)on1 [4-(4,4-Difluoro-cyclohexanecarbonyl)-[1,4]diazepane-1-carboxylic acid (3-tert-butyl-isoxazol-5-yl)-amide] | – |
| agonistic activity | – | O=C(Nc1ccc(C(F)(F)F)cn1)N1CCCN(C(=O)C2CCOCC2)CC1 [4-(Tetrahydro-pyran-4-carbonyl)-[1,4]diazepane-1-carboxylic acid (5-trifluoromethyl-pyridin-2-yl)-amide] | – |
| – | 95 nM | CC(C)(C)c1cc(NC(=O)N2CCCN(C(=O)N3CCS(=O)(=O)CC3)CC2)on1 [Compound 211, 4-(1,1-Dioxo-1 λ^6-thiomorpholine-4-carbonyl)-[1,4]diazepane-1-carboxylic acid (3-tert-butyl-isoxazol-5-yl)-amide] | Emax [1]: 100% |
| agonistic activity | – | CC(C)c1cnc(NC(=O)N2CCCN(C(=O)C3CCOCC3)CC2)s1 [4-(Tetrahydro-pyran-4-carbonyl)-[1,4]diazepane-1-carboxylic acid (5-isopropyl-thiazol-2-yl)-amide] | – |
| agonistic activity | – | CC(C)c1ccc(NC(=O)N2CCCN(C(=O)CCC3CC3)CC2)cc1 [4-(3-Cyclopropyl-propionyl)-[1,4]diazepane-1-carboxylic acid (4-isopropyl-phenyl)-amide] | – |
